Measured values from publication PMC6094047 (Antiviral Research, 2018).
Where “and” joins values, the source holds several entries; their conditions need not be identical. Identical values can stand only once. Like-named read-outs stand apart in the source and are kept apart here.

Tests used:
[1] = system: B/Victoria-lineage virus neuraminidase (NA); type: biochemical, influenza B/Victoria-lineage virus
[2] = system: A(H1N1)pdm09 virus neuraminidase (NA); settings: cited from earlier work; for fold increases in IC50s compared to the mean IC50s: previously described A(H1N1)pdm09 virus with S110F AAS, ref Okomo-Adhiambo et al., 2014
[3] = system: A(H1N1)pdm09 virus neuraminidase (NA); type: biochemical, influenza A(H1N1)pdm09 virus
[4] = system: A(H3N2) virus neuraminidase (NA); type: biochemical, influenza A(H3N2) virus
[5] = A(H1N1)pdm09 NA H275Y, ref WHO-AVWG NAI substitution table

| Structure (SMILES) | Fold change in IC50 [1] | inhibition phenotype associated with NA AAS (NI/RI/HRI) [2, 5] | IC50 fold-change compared to reference median IC50 values [3] | inhibition phenotype associated with NA AAS (NI/RI/HRI) [2] | Fold change in IC50 [4] | inhibition phenotype (NI/RI/HRI) [4] | fold increases in IC50s compared to the mean IC50s [2] |
| --- | --- | --- | --- | --- | --- | --- | --- |
| CCC(CC)[C@H](NC(C)=O)[C@@H]1[C@H](O)[C@@H](C(=O)O)C[C@H]1N=C(N)N [Peramivir] | 30 fold and 26 fold | HRI (highly reduced inhibition (HRI) (type A viruses >100-fold) |  |  |  |  |  |
| [H]/N=C(\N)N[C@H]1C=C(C(=O)O)O[C@@H]([C@H](OC)[C@H](O)CO)[C@@H]1NC(C)=O [Laninamivir] | 1.8 fold and 2.2 fold |  | 1.5–3.4 (8) fold and 2.9 fold | HRI (key: normal inhibition (NI) (type A viruses <10-fold; reduced inhibition (RI) (type A viruses 10- to 100-fold; highly reduced inhibition (HRI) (type A viruses >100-fold) |  |  |  |
| CC(=O)N[C@H]1[C@H]([C@H](O)[C@H](O)CO)OC(C(=O)O)=C[C@@H]1N=C(N)N [Zanamivir] | 1.4 fold and 2.0 fold |  |  |  | 11 fold and 8.1 fold and 9.1 fold | RI (key: normal inhibition (NI) (type A viruses <10-fold; reduced inhibition (RI) (type A viruses 10- to 100-fold; highly reduced inhibition (HRI) (type A viruses >100-fold) | 3–6 fold |
| CCOC(=O)C1=C[C@@H](OC(CC)CC)[C@H](NC(C)=O)[C@@H](N)C1 [Oseltamivir] | 4.1 fold and 2.9 fold | HRI (highly reduced inhibition (HRI) (type A viruses >100-fold) |  | HRI (key: normal inhibition (NI) (type A viruses <10-fold; reduced inhibition (RI) (type A viruses 10- to 100-fold; highly reduced inhibition (HRI) (type A viruses >100-fold) | 14 fold | RI (key: normal inhibition (NI) (type A viruses <10-fold; reduced inhibition (RI) (type A viruses 10- to 100-fold; highly reduced inhibition (HRI) (type A viruses >100-fold) | 3–6 fold |
